According to publication PMC11995724, “Antibiotic target discovery by integrated phenotypic and activity-based profiling of electrophilic fragments” (Cell chemical biology, 2025):

Experiment: in vitro
Conditions: human, hek293t cells

Structure (SMILES) | viability at 48 h, 25 µM [%]
O=C(NC1CC1)C1(C(=O)N2CCSSCC2)CCC1 [10-B21, N-cyclopropyl-1-(1,2,5-dithiazepane-5-carbonyl)cyclobutane-1-carboxamide] | 95.1
Cn1ccc(NC(=O)C(C#N)=Cc2ncccc2C(F)(F)F)n1 [8-F17, 2-cyano-N-(1-methyl-1H-pyrazol-3-yl)-3-[3-(trifluoromethyl)pyridin-2-yl]prop-2-enamide] | 95.2
O=C(CCl)Nc1ccc(OCc2ccccc2)cc1 [6-K07, N-[4-(benzyloxy)phenyl]-2-chloroacetamide] | 0.0552
C=CS(=O)(=O)Nc1ccccc1 [10-C07, N-phenylethene-1-sulfonamide] | 30.8
Cn1c(N)c(N2C(=O)C=CC2=O)c(=O)[nH]c1=O [10-P05, 6-amino-5-(2,5-dioxo-2,5-dihydro-1H-pyrrol-1-yl)-1-methyl-1,2,3,4-tetrahydropyrimidine-2,4-dione] | 124
CC(C)NC(=O)C(C#N)=Cc1c(Cl)nc2ccccn12 [9-A11, 3-{2-chloroimidazo[1,2-a]pyridin-3-yl}-2-cyano-N-(propan-2-yl)prop-2-enamide] | 112
CC(Cl)C(=O)NCC1CCCN(c2nccn3cnnc23)C1 (centres unmarked) [7-M05, 2-chloro-N-[(1-{[1,2,4]triazolo[4,3-a]pyrazin-8-yl}piperidin-3-yl)methyl]propanamide] | 102
CSc1ccc(C=C(C#N)C(=O)Nc2ccc3c(c2)OCCO3)cc1 [9-L05, 2-cyano-N-(2,3-dihydro-1,4-benzodioxin-6-yl)-3-[4-(methylsulfanyl)phenyl]prop-2-enamide] | 114
COc1ccc(N(C(=O)CCl)C2C=CS(=O)(=O)C2)cc1 (centres unmarked) [5-H14, 2-chloro-N-(1,1-dioxo-2,3-dihydro-1lambda6-thiophen-3-yl)-N-(4-methoxyphenyl)acetamide] | 1.1
COc1ccc(S(=O)(=O)N2CCOCC2)cc1NC(=O)CCl [4-O04, 2-chloro-N-[2-methoxy-5-(morpholine-4-sulfonyl)phenyl]acetamide] | 1.63
Cc1cnc(C(C)N2CCN(C(=O)C(C)Cl)CC2)s1 (centres unmarked) [7-M03, 2-chloro-1-{4-[1-(5-methyl-1,3-thiazol-2-yl)ethyl]piperazin-1-yl}propan-1-one] | 97.5
C=CC(=O)N1CCC(c2nc(N(C)C)no2)CC1 [2-K09, 1-{4-[3-(dimethylamino)-1,2,4-oxadiazol-5-yl]piperidin-1-yl}prop-2-en-1-one] | 194
O=C(CCl)NS(=O)(=O)c1ccc(Cl)cc1 [4-E18, 2-chloro-N-(4-chlorobenzenesulfonyl)acetamide] | 79.9
Cc1ccc(C2OCCCC2CNC(=O)C(C)Cl)cc1 (centres unmarked) [7-B09, 2-chloro-N-{[2-(4-methylphenyl)oxan-3-yl]methyl}propanamide] | 91.9
C=CC(=O)N(CC1CCOCC1)C1CC1 [2-I08, N-cyclopropyl-N-[(oxan-4-yl)methyl]prop-2-enamide] | 88
CC(NC(=O)C(C#N)=Cc1ccco1)c1cccc(-n2cccn2)c1 (centres unmarked) [9-J04, 2-cyano-3-(furan-2-yl)-N-{1-[3-(1H-pyrazol-1-yl)phenyl]ethyl}prop-2-enamide] | 95.9
C=CC(=O)NCCc1ccc(S(N)(=O)=O)cc1 [2-B13, N-[2-(4-sulfamoylphenyl)ethyl]prop-2-enamide] | 77.8
C=CC(=O)Nc1ccc(C(=O)C(F)F)cc1 [1-M20, N-[4-(2,2-difluoroacetyl)phenyl]prop-2-enamide] | 104
O=C(CCl)N(Cc1ccoc1)C1CCCCC1 [5-B15, 2-chloro-N-cyclohexyl-N-[(furan-3-yl)methyl]acetamide] | 0.638
CSc1ccccc1CC(C)NC(=O)CCl (centres unmarked) [7-D14, 2-chloro-N-{1-[2-(methylsulfanyl)phenyl]propan-2-yl}acetamide] | 1.59
COCCNC(=O)C(C#N)=Cc1c(F)cccc1Cl [8-O21, 3-(2-chloro-6-fluorophenyl)-2-cyano-N-(2-methoxyethyl)prop-2-enamide] | 94.2
C=CC(=O)NC1CCS(=O)(=O)c2ccc(F)cc21 (centres unmarked) [2-J19, N-(6-fluoro-1,1-dioxo-3,4-dihydro-2H-1lambda6-benzothiopyran-4-yl)prop-2-enamide] | 55.4
C=CC(=O)N(Cc1c(C)cccc1C)C1CCc2nc(C)nn2C1 (centres unmarked) [1-B11, N-[(2,6-dimethylphenyl)methyl]-N-{2-methyl-5H,6H,7H,8H-[1,2,4]triazolo[1,5-a]pyridin-6-yl}prop-2-enamide] | 114
C=CC(=O)N(Cc1cc(C)cc2c(C)c(C)[nH]c12)CC1(C)COC1 [2-E07, N-[(3-methyloxetan-3-yl)methyl]-N-[(2,3,5-trimethyl-1H-indol-7-yl)methyl]prop-2-enamide] | 80.6
N#CC(=CN1CCN(c2ccccc2)CC1)C(=O)Nc1ccc(F)cc1 [8-C20, 2-cyano-N-(4-fluorophenyl)-3-(4-phenylpiperazin-1-yl)prop-2-enamide] | 72.5

Structure (SMILES) | viability at 48 h, 25 µM [%]
CC1=C(c2ccco2)CN(C(=O)C(C)Cl)CC1 (centres unmarked) [6-D15, 2-chloro-1-[5-(furan-2-yl)-4-methyl-1,2,3,6-tetrahydropyridin-1-yl]propan-1-one] | 103
C=CC(=O)NC1CCN(c2ccc(Cl)c(Cl)c2)C1 (centres unmarked) [1-C14, N-[1-(3,4-dichlorophenyl)pyrrolidin-3-yl]prop-2-enamide] | 52.9
COc1cc(NC(=O)CCl)cc(OC)c1 [4-G09, 2-chloro-N-(3,5-dimethoxyphenyl)acetamide] | 8.6
O=C(CCl)NCc1ccc(C(=O)N2CCCC2)cc1 [6-G04, 2-chloro-N-{[4-(pyrrolidine-1-carbonyl)phenyl]methyl}acetamide] | 107
CC1CC(NC(=O)C(C)Cl)=NO1 (centres unmarked) [5-J21, 2-chloro-N-(5-methyl-4,5-dihydro-1,2-oxazol-3-yl)propanamide] | 97.1
Cc1cc(NC(=O)CCl)c([N+](=O)[O-])cc1C [4-F21, 2-chloro-N-(4,5-dimethyl-2-nitrophenyl)acetamide] | 112
Cc1ccc(NC(=O)N2CCN(C(=O)C(C)Cl)CC2)cc1Cl (centres unmarked) [7-A21, N-(3-chloro-4-methylphenyl)-4-(2-chloropropanoyl)piperazine-1-carboxamide] | 70.8
Cc1c(C=C(C#N)C(=O)Nc2ccccn2)cc(C#N)n1C [8-G06, 2-cyano-3-(5-cyano-1,2-dimethyl-1H-pyrrol-3-yl)-N-(pyridin-2-yl)prop-2-enamide] | 94.1
CC(C)Cc1ccc(C(C)NC(=O)CCl)cc1 (centres unmarked) [4-H03, 2-chloro-N-{1-[4-(2-methylpropyl)phenyl]ethyl}acetamide] | 0.63
O=C(CCl)N1CCN(Cc2ccon2)CC1 [5-O04, 2-chloro-1-{4-[(1,2-oxazol-3-yl)methyl]piperazin-1-yl}ethan-1-one] | 104
C=CC(=O)N(C)Cc1nc2c(cnn2C)c(=O)[nH]1 [3-L08, N-methyl-N-({1-methyl-4-oxo-1H,4H,5H-pyrazolo[3,4-d]pyrimidin-6-yl}methyl)prop-2-enamide] | 70.4
O=C(CCl)N1CCC(C2CCCN(C(=O)C(F)(F)F)C2)CC1 (centres unmarked) [5-E20, 1-[1'-(2-chloroacetyl)-[3,4'-bipiperidin]-1-yl]-2,2,2-trifluoroethan-1-one] | 1.17
CC(Cl)C(=O)NCc1ccc2cnn(C)c2c1 (centres unmarked) [7-D21, 2-chloro-N-[(1-methyl-1H-indazol-6-yl)methyl]propanamide] | 87.7
Cc1nccn1Cc1ccc(NC(=O)C(C#N)=Cc2ccco2)cc1 [9-H12, 2-cyano-3-(furan-2-yl)-N-{4-[(2-methyl-1H-imidazol-1-yl)methyl]phenyl}prop-2-enamide] | 93
O=C(CCl)C1CCC2(CC1)CC2 [10-C17, 2-chloro-1-{spiro[2.5]octan-6-yl}ethan-1-one] | 60.1
Cc1nc2ccccc2n(CCCNC(=O)C(C)Cl)c1=O (centres unmarked) [7-O21, 2-chloro-N-[3-(3-methyl-2-oxo-1,2-dihydroquinoxalin-1-yl)propyl]propanamide] | 59.4
CC1CCc2c(sc(NC(=O)CCl)c2C(=O)OC(C)C)C1 (centres unmarked) [4-D07, propan-2-yl 2-(2-chloroacetamido)-6-methyl-4,5,6,7-tetrahydro-1-benzothiophene-3-carboxylate] | 73.7
Cn1c(CNC=C(C#N)C(=O)Nc2ccccc2)cc(=O)n(C)c1=O [9-G21, 2-cyano-3-{[(1,3-dimethyl-2,6-dioxo-1,2,3,6-tetrahydropyrimidin-4-yl)methyl]amino}-N-phenylprop-2-enamide] | 115
O=C(CCl)NC1CCCS(=O)(=O)c2ccccc21 (centres unmarked) [6-O19, 2-chloro-N-(1,1-dioxo-2,3,4,5-tetrahydro-1lambda6-benzothiepin-5-yl)acetamide] | 5.88
N#CC(=Cc1c[nH]c2ccccc12)C(=O)Nc1cccc2ncccc12 [9-N08, 2-cyano-3-(1H-indol-3-yl)-N-(quinolin-5-yl)prop-2-enamide] | 101
C=CC(=O)N1CCC(C(=O)N[C@H]2CCCCCC[C@H]2C(=O)OC)CC1 (racemic) [2-H06, rac-methyl (1R,2S)-2-[1-(prop-2-enoyl)piperidine-4-amido]cyclooctane-1-carboxylate] | 94.4
O=C(CCl)NC(c1ccccc1)C1CC1 (centres unmarked) [5-L16, 2-chloro-N-[cyclopropyl(phenyl)methyl]acetamide] | 116
COc1ccc(NC(=O)C(C#N)=Cc2cccs2)cc1 [8-O14, 2-cyano-N-(4-methoxyphenyl)-3-(thiophen-2-yl)prop-2-enamide] | 75.7
Cc1nn(CCC(=O)N2CCSSCC2)c(C)c1[N+](=O)[O-] [10-J05, 3-(3,5-dimethyl-4-nitro-1H-pyrazol-1-yl)-1-(1,2,5-dithiazepan-5-yl)propan-1-one] | 96.8
C=CC(=O)N1CCC(C(=O)NC(C)(c2noc(C)n2)C2CC2)CC1 (centres unmarked) [2-B10, N-[1-cyclopropyl-1-(5-methyl-1,2,4-oxadiazol-3-yl)ethyl]-1-(prop-2-enoyl)piperidine-4-carboxamide] | 79.8
